Key:
[1] = test system: histone H4; test: Western blot of histone H4 modifications, H1299 cells; type: cell-based, human; conditions: total lysates, vs Scr
Text: Fig. 2 NatD is required for lung cancer cell migration and invasion in vitro. a Quantitative real-time PCR analysis of NatD mRNA levels normalized to GAPDH in scrambled control cells (Scr) and NatD-KD1 and NatD-KD2 cells. Results are shown as mean ± s.d. from three independent experiments. Two-tailed Student’s t-test was used. **P < 0.01 compared to Scr control. b Western blot analysis of NatD and Nt-ac-H4 protein levels in scrambled, NatD-KD1, and NatD-KD2 cells. GAPDH and histone H4 served as loading controls. Blots are representative of three independent experiments. c Representative images from wound healing assay of scrambled, NatD-KD1, and NatD-KD2 cells from three independent experiments (left panels). Wound healing assay results are quantified in the histogram (right panel). Results are shown as mean ± s.d. from three independent experiments. Two-tailed Student’s t-test was used. **P < 0.01 compared to Scr control. d Representative images of the migration of scrambled, NatD-KD1, and NatD-KD2 cells in a time-lapse cell tracker migration assay from three independent experiments. Representative images of the migration (e) and invasion (f) of scramble, NatD-KD1, and NatD-KD2 cells with transwell assay from three independent experiments (top panel). Cell counts for the corresponding assays of at least four random microscope fields (×100 magnification). Cell migration and invasion are expressed as a percentage of control (bottom panel). Results are shown as mean ± s.d. from three independent experiments. Two-tailed Student’s t-test was used. **P < 0.01 compared to Scr control
Fig. 6 Nt-acetylation of histone H4 antagonizes phosphorylation of histone H4 serine 1 to regulate Slug expression. a Western blot analysis of indicated histone H4 modifications in Scr and NatD-KD H1299 cells. Histone H4 served as a loading control. b ChIP analysis of the enrichment of indicated histone H4 modifications on the Slug promoter in Scr and NatD-KD H1299 cells. IgG served as a negative control. Results are shown as mean ± s.d. from three independent experiments; two-tailed Student’s t-test, *P < 0.05, **P < 0.01 compared with the Scr control. c ChIP analysis of the enrichment of H3K4me3 and H3K27me3 on the Slug promoter in Scr and NatD-KD H1299 cells. IgG served as a negative control. Results are shown as mean ± s.d. from three independent experiments; two-tailed Student’s t-test, **P < 0.01 compared with the Scr control. d Western blot analysis of indicated proteins from H1299 cells overexpressing NatDΔ or wild-type NatD. Histone H4 served as a loading control. e ChIP analysis of the enrichment of Nt-ac-H4 and H4S1ph on Slug promoter in H1299 cells overexpressing NatDΔ or wild-type NatD. IgG served as a negative control. Results are shown as mean ± s.d. from three independent experiments; two-tailed Student’s t-test, *P < 0.05, **P < 0.01 compared with the wild-type control
Cellular proteins were extracted by RIPA lysis buffer at high salt concentration (420 mM NaCl), and western blot analysis was performed in accordance with standard protocols. Scans of enhanced chemiluminescence (ECL) films showing uncropped blots are presented in Supplementary Fig. 10. […]

[2] = test system: H1299 cells; test: Transwell migration and invasion assay, H1299 cells; type: cell-based, human; conditions: 12 h, knockdown vs Scr
Text: Fig. 2 NatD is required for lung cancer cell migration and invasion in vitro. a Quantitative real-time PCR analysis of NatD mRNA levels normalized to GAPDH in scrambled control cells (Scr) and NatD-KD1 and NatD-KD2 cells. Results are shown as mean ± s.d. from three independent experiments. Two-tailed Student’s t-test was used. **P < 0.01 compared to Scr control. b Western blot analysis of NatD and Nt-ac-H4 protein levels in scrambled, NatD-KD1, and NatD-KD2 cells. GAPDH and histone H4 served as loading controls. […] Wound healing assay results are quantified in the histogram (right panel). […] Cell migration and invasion are expressed as a percentage of control (bottom panel). […]
Fig. 5 Regulation of Slug by NatD is acetyltransferase activity-dependent. a (left) In vitro acetylation assay showing the catalytic activity of NatDΔ and wild-type NatD (CPM, counts per minute). […] (bottom) Histones shown by Coomassie blue staining. d Quantitative real-time PCR analysis of mRNA levels of Slug, E-cadherin, N-cadherin, and Vimentin normalized to GAPDH in H1299 cells overexpressing NatDΔ or wild-type NatD. […] Cell migration and invasion are expressed as a percentage of control (bottom panel). […]
The in vitro viability of H1299 cells was assessed using the Cell Counting Kit-8 (CCK-8, Dojindo, Japan) according to the manufacturer’s protocol. […]

Substance | level of Nt-ac-H4 [1] | migratory and invasive capabilities (transwell) [2] | level of H4R3me2a [1] | level of H4R3me2s [1] | level of H4S1ph [1] | levels of H4K5ac, H4K8ac, or H4K12ac [1] | level of Nt-ac-H4 ([1]; listed as NatD knockdown)
NatD-KD1: Human NatD shRNA KD1: 5′-GATGAAGAAGGTTATGTTA-3′, lentiviral (shRNA, lentiviral) | significantly reduced | significantly reduced |  |  |  |  | 
NatD-KD2: Human NatD shRNA KD2: 5′-GGTTGAATGTCTCCATTGA-3′, lentiviral (shRNA lentiviral) | significantly reduced | significantly reduced | slightly increased | slightly decreased | significantly increased | No significant change | greatly decreased
